Data as given in BindingDB's records for doi:10.1021/cb800306y (Stony Brook University, 2009).

Key:
[1] = target: T1, Enoyl-[acyl-carrier-protein] reductase [NADH] (Francisella tularensis subsp. novicida (strain U112), UniProt A0Q794); assay: Enzyme Inhibition Assay; conditions: pH 8; 25 °C
T1 sequence (A0Q794 whole entry): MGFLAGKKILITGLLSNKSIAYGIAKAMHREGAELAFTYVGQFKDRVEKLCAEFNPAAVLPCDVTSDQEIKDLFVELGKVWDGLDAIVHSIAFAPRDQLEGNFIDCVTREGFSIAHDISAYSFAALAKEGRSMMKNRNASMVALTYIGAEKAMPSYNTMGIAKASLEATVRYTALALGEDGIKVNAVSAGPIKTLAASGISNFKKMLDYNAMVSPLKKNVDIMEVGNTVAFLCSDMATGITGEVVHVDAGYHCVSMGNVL
From the text: Inhibition constant binding to E-NADH

[2] = target: T1, Enoyl-[acyl-carrier-protein] reductase [NADH]; assay: Enzyme Inhibition Assay; conditions: pH 8; 25 °C; remark: listed apart in the source
From the text: Inhibition constant binding to E-NAD+

| Compound | Ki [1] [nM] | Ki [2] [nM] |
| --- | --- | --- |
| CCCCCCc1ccc(Oc2ccccc2)c(O)c1 [5-hexyl-2-phenoxyphenol] | 331 | 2.7 |
| CCc1ccc(Oc2ccccc2)c(O)c1 [PT01] | 311 | 2.1 |
| CCCc1ccc(Oc2ccccc2)c(O)c1 [PT02] | 696 | 0.44 |
| Oc1cc(F)ccc1Oc1ccccc1 [PT55] | – | 289 |
| CCCCCCCCc1ccc(Oc2ccccc2)c(O)c1 [5-Octyl-2-phenoxy-phenol] | 192 | 23.6 |
| Cc1ccc(Oc2ccccc2)c(O)c1 [PT53] | 247 | 1.9 |
| Oc1cc(Cl)ccc1Oc1ccccc1 [PT52] | 308 | 1.9 |
| Oc1cc(Cl)ccc1Oc1ccc(Cl)cc1Cl | 5000 | 0.051 |
